Tested on: HeLa cells
Type: cell-based
Method: We first evaluated cell toxicity of Pep-MD. Specifically, we quantified HeLa cell viability using CellTiter-Glo® Luminescent Cell Viability Assay kit in the presence of a series of concentration of Pep-MD, 0.1, 0.5 and 2 µM, in serum-free cell culture media. The kit can visualize the number of viable cells as chemiluminescence intensity based on quantitation of the ATP present, an indicator of metabolically active cells. As a positive control, we also evaluated TAT (GRKKRRQRRR in amino acid sequence).
The HeLa cell line was purchased from RIKEN cell bank (Tsukuba, Japan). HeLa cells were cultured in Dulbecco’s Eagle’s medium (DMEM, FUJIFILM Wako Pure Chemical, Japan) supplemented with inactivated 10% fetal bovine serum (FBS, Biosera, France) and 1% penicillin–streptomycin solution (FUJIFILM Wako Pure Chemical).
HeLa cells were seeded at a density of 8000 cells per well in 96 well plate (AGC Techno Glass, Shizuoka, Japan). […] Cell viability of each well was quantified with CellTiter-Glo® Luminescent Cell Viability Assay kit (Promega, Madison, WI, USA) and EnSpire™ microplate reader (PerkinElmer, Waltham, MA, USA) according to manufacturer’s instructions. The cell viability was calculated as the chemiluminescence intensity ratio of samples to that of […] without peptide.

Sequence	Cell toxicity (HeLa cell viability) at 2.0 µM
YRGWHCRGITKNGIIFDIKW [Pep-MD]	little toxicity
GRKKRRQRRR [TAT]	significant cell toxicity
